Experimental findings from patent publication US20070179154A1, “Coumarin derivatives, process for their production and use thereof” (Takeda Pharmaceutical Company Limited, priority 2002, published 2007) are described below.

The structures appear in SMILES notation.

Broadly, the melting point is the temperature of the solid-liquid transition.

For the molecule `Cc1cc2c(-c3cccc(C(=O)O)c3)c(CC(=O)Nc3ccc(Cl)cc3C(F)(F)F)c(=O)oc2cc1Cl` [Example 1, 3-[7-chloro-3-[2-[[4-chloro-2-(trifluoromethyl)phenyl]amino]-2-oxoethyl]-6-methyl-2-oxo-2H-chromen-4-yl]benzoic acid], the melting point lay within 270 to 272 °C.

`Cc1cc2c(-c3cccc(C(=O)O)c3)c(CC(=O)Nc3ccc(F)cc3C(F)(F)F)c(=O)oc2cc1Cl` [Example 2]: the melting point lay within 278 to 280 °C.

In the case of `CCOC(=O)/C=C/c1cc(-c2c(CC(=O)Nc3ccc(Cl)cc3C(F)(F)F)c(=O)oc3cc(Cl)c(C)cc23)ccc1F` [Example 3, ethyl (2E)-3-[5-[7-chloro-3-[2-[[4-chloro-2-(trifluoromethyl)phenyl]amino]-2-oxoethyl]-6-methyl-2-oxo-2H-chromen-4-yl]-2-fluorophenyl]-2-propenoate], the melting point fell in the range of 160 to 162 °C.

`CCOC(=O)/C=C/c1cccc(-c2c(CC(=O)Nc3ccc(F)cc3C(F)(F)F)c(=O)oc3cc(C)c(Cl)cc23)c1` [Example 5, ethyl (2E)-3-[3-[6-chloro-3-[2-[[4-fluoro-2-(trifluoromethyl)phenyl]amino]-2-oxoethyl]-7-methyl-2-oxo-2H-chromen-4-yl]phenyl]-2-propenoate]: the melting point lay within 206 to 209 °C.

In the case of `CCOC(=O)/C=C/c1cccc(-c2c(CC(=O)Nc3ccc(F)cc3C(F)(F)F)c(=O)oc3cc(Cl)c(F)cc23)c1` [Example 6, ethyl (2E)-3-[3-[7-chloro-6-fluoro-3-[2-[[4-fluoro-2-(trifluoromethyl)phenyl]amino]-2-oxoethyl]-2-oxo-2H-chromen-4-yl]phenyl}-2-propenoate], the melting point fell in the range of 151 to 153 °C.

`CCOC(=O)/C=C/c1cccc(-c2c(CC(=O)Nc3ccc(F)cc3C(F)(F)F)c(=O)oc3cc(Cl)ccc23)c1` [Example 7, ethyl (2E)-3-[3-[7-chloro-3-[2-[[4-fluoro-2-(trifluoromethyl)phenyl]amino]-2-oxoethyl]-2-oxo-2H-chromen-4-yl]phenyl]-2-propenoate] returned a melting point of 166 to 169 °C.

Regarding `CCOC(=O)CCc1cccc(-c2c(CC(=O)Nc3ccc(F)cc3C(F)(F)F)c(=O)oc3cc(Cl)c(C)cc23)c1` [Example 8, ethyl 3-[5-[7-chloro-3-[2-[[4-fluoro-2-(trifluoromethyl)phenyl]amino]-2-oxoethyl]-6-methyl-2-oxo-2H-chromen-4-yl]phenyl]propionate], the melting point lay in the range of 121 to 123 °C.

Regarding `CCOC(=O)CCc1cccc(-c2c(CC(=O)Nc3ccccc3C(F)(F)F)c(=O)oc3cc(Cl)c(C)cc23)c1` [Example 9, ethyl 3-[3-[7-chloro-6-methyl-3-[2-[[2-(trifluoromethyl)phenyl]amino]-2-oxoethyl]-2-oxo-2H-chromen-4-yl]phenyl]propionate], the melting point fell in the range of 115 to 117 °C.

For `CCOC(=O)CCc1cccc(-c2c(CC(=O)Nc3ccc(F)cc3C(F)(F)F)c(=O)oc3cc(C)c(Cl)cc23)c1` [Example 10, ethyl 3-[3-[6-chloro-3-[2-[[4-fluoro-2-(trifluoromethyl)phenyl]amino]-2-oxoethyl]-7-methyl-2-oxo-2H-chromen-4-yl]phenyl]propionate], the melting point fell in the range of 158 to 160 °C.

As for `CCOC(=O)CCc1cccc(-c2c(CC(=O)Nc3ccc(F)cc3C(F)(F)F)c(=O)oc3cc(Cl)c(F)cc23)c1` [Example 11, ethyl 3-[3-[7-chloro-6-fluoro-3-[2-[[4-fluoro-2-(trifluoromethyl)phenyl]amino]-2-oxoethyl]-2-oxo-2H-chromen-4-yl]phenyl]propionate], the melting point lay within 142 to 144 °C.

The molecule `CCOC(=O)CCc1cccc(-c2c(CC(=O)Nc3ccc(F)cc3C(F)(F)F)c(=O)oc3cc(Cl)ccc23)c1` [Example 12, ethyl 3-[3-[7-chloro-3-[2-[[4-fluoro-2-(trifluoromethyl)phenyl]amino]-2-oxoethyl]-2-oxo-2H-chromen-4-yl]phenyl]propionate] yielded a melting point of 164 to 165 °C.

Consider `CCOC(=O)CCc1cccc(-c2c(CC(=O)Nc3ccc(F)cc3C(F)(F)F)c(=O)oc3ccccc23)c1` [Example 13, ethyl 3-[3-[3-[2-[[4-fluoro-2-(trifluoromethyl)phenyl]amino]-2-oxoethyl]-2-oxo-2H-chromen-4-yl]phenyl]propionate], for which the melting point lay in the range of 163 to 164 °C.

In turn, `Cc1cc2c(-c3cccc(CCC(=O)O)c3)c(CC(=O)Nc3ccc(F)cc3C(F)(F)F)c(=O)oc2cc1Cl` [Example 14, 3-[5-[7-chloro-3-[2-[[4-fluoro-2-(trifluoromethyl)phenyl]amino]-2-oxoethyl]-6-methyl-2-oxo-2H-chromen-4-yl]phenyl]propionic acid] registered a melting point of 212 to 214 °C.

With `Cc1cc2c(-c3cccc(/C=C/C(=O)O)c3)c(CC(=O)Nc3ccccc3C(F)(F)F)c(=O)oc2cc1Cl` [Example 15, (2E)-3-[3-[7-chloro-6-methyl-2-oxo-3-(2-oxo-2-[[2-(trifluoromethyl)phenyl]amino]ethyl)-2H-chromen-4-yl]phenyl]-2-propenoic acid], the melting point is 252 to 254 °C.

For the molecule `Cc1cc2oc(=O)c(CC(=O)Nc3ccc(F)cc3C(F)(F)F)c(-c3cccc(/C=C/C(=O)O)c3)c2cc1Cl` [Example 16, (2E)-3-[3-[6-chloro-3-(2-[[4-fluoro-2-(trifluoromethyl)phenyl]amino]-2-oxoethyl)-7-methyl-2-oxo-2H-chromen-4-yl]phenyl]-2-propenoic acid], the melting point fell in the range of 272 to 274 °C.

In turn, `O=C(O)/C=C/c1cccc(-c2c(CC(=O)Nc3ccc(F)cc3C(F)(F)F)c(=O)oc3cc(Cl)c(F)cc23)c1` [Example 17, (2E)-3-[3-[7-chloro-6-fluoro-3-[2-[[4-fluoro-2-(trifluoromethyl)phenyl]amino]-2-oxoethyl]-2-oxo-2H-chromen-4-yl]phenyl]-2-propenoic acid] gave a melting point of 245 to 247 °C.

For the molecule `O=C(O)/C=C/c1cccc(-c2c(CC(=O)Nc3ccc(F)cc3C(F)(F)F)c(=O)oc3cc(Cl)ccc23)c1` [Example 18, (2E)-3-[3-[7-chloro-3-[2-[[4-fluoro-2-(trifluoromethyl)phenyl]amino]-2-oxoethyl]-2-oxo-2H-chromen-4-yl]phenyl]-2-propenoic acid], the melting point was 254 to 257 °C.

`Cc1cc2c(-c3ccc(F)c(/C=C/C(=O)O)c3)c(CC(=O)Nc3ccc(Cl)cc3C(F)(F)F)c(=O)oc2cc1Cl` [Example 19, (2E)-3-[5-[7-chloro-3-[2-[[4-chloro-2-(trifluoromethyl)phenyl]amino]-2-oxoethyl]-6-methyl-2-oxo-2H-chromen-4-yl]-2-fluorophenyl]-2-propenoic acid] had a melting point of 277 to 279 °C.

Turning to `Cc1cc2c(-c3cccc(CCC(=O)O)c3)c(CC(=O)Nc3ccccc3C(F)(F)F)c(=O)oc2cc1Cl` [Example 20, 3-[3-[7-chloro-6-methyl-2-oxo-3-(2-oxo-2-[[2-(trifluoromethyl)phenyl]amino]ethyl)-2H-chromen-4-yl]phenyl]propionic acid], the melting point was 150 °C (dec.).

Take `Cc1cc2oc(=O)c(CC(=O)Nc3ccc(F)cc3C(F)(F)F)c(-c3cccc(CCC(=O)O)c3)c2cc1Cl` [Example 21, 3-[3-[6-chloro-3-(2-[[4-fluoro-2-(trifluoromethyl)phenyl]amino]-2-oxoethyl)-7-methyl-2-oxo-2H-chromen-4-yl]phenyl]propionic acid]: the melting point fell in the range of 240 to 242 °C.
